The NIST ThermoML archive (doi:10.1021/je201002j)

What was measured:
[1] = molar heat capacity at constant pressure; conditions: 101.33 kPa, Liquid, Small sample (50 mg) DSC
[2] = 101.33 kPa, Liquid, Vibrating tube method

BrCCCCCCCCBr [1,8-dibromooctane]
[1]
Conditions | molar heat capacity at constant pressure [J/K/mol]
288.15 K | 302.23
289.65 K | 302.83
291.15 K | 303.43
292.65 K | 304.03
294.15 K | 304.63
295.65 K | 305.23
297.15 K | 305.83
298.15 K | 306.23
298.65 K | 306.43
300.15 K | 307.03
301.65 K | 307.63
303.15 K | 308.23
304.65 K | 308.82
306.15 K | 309.42
307.65 K | 310.02
309.15 K | 310.61
310.65 K | 311.21
312.15 K | 311.8
313.65 K | 312.39
315.15 K | 312.99
316.65 K | 313.58
318.15 K | 314.17
319.65 K | 314.76
321.15 K | 315.35
322.65 K | 315.94
324.15 K | 316.53
325.65 K | 317.12
327.15 K | 317.71
328.65 K | 318.3
330.15 K | 318.88
331.65 K | 319.47
333.15 K | 320.05
334.65 K | 320.64
336.15 K | 321.22
337.65 K | 321.81
339.15 K | 322.39
340.65 K | 322.97
342.15 K | 323.56
343.65 K | 324.14
345.15 K | 324.72
346.65 K | 325.3
348.15 K | 325.88
349.65 K | 326.46
351.15 K | 327.04
352.65 K | 327.62
354.15 K | 328.19
355.15 K | 328.58

BrCCCCCCCCCBr [1,9-dibromononane]
[1]
Conditions | molar heat capacity at constant pressure [J/K/mol]
286.65 K | 330.9
288.15 K | 331.44
289.65 K | 332
291.15 K | 332.56
292.65 K | 333.14
294.15 K | 333.72
295.65 K | 334.3
297.15 K | 334.9
298.15 K | 335.29
298.65 K | 335.5
300.15 K | 336.1
301.65 K | 336.72
303.15 K | 337.34
304.65 K | 337.96
306.15 K | 338.59
307.65 K | 339.23
309.15 K | 339.87
310.65 K | 340.52
312.15 K | 341.17
313.65 K | 341.83
315.15 K | 342.49
316.65 K | 343.16
318.15 K | 343.83
319.65 K | 344.5
321.15 K | 345.18
322.65 K | 345.86
324.15 K | 346.54
325.65 K | 347.22
327.15 K | 347.91
328.65 K | 348.6
330.15 K | 349.3
331.65 K | 349.99
333.15 K | 350.69
334.65 K | 351.39
336.15 K | 352.08
337.65 K | 352.78
339.15 K | 353.49
340.65 K | 354.19
342.15 K | 354.89
343.65 K | 355.59
345.15 K | 356.29
346.65 K | 356.99
348.15 K | 357.69
349.65 K | 358.39
351.15 K | 359.09
352.65 K | 359.79
354.15 K | 360.49
355.15 K | 360.95

BrCCCCCCCCCCCBr [1,11-dibromoundecane]
[1]
Conditions | molar heat capacity at constant pressure [J/K/mol]
285.15 K | 389.4
286.65 K | 389.99
288.15 K | 390.59
289.65 K | 391.2
291.15 K | 391.83
292.65 K | 392.47
294.15 K | 393.12
295.65 K | 393.79
297.15 K | 394.47
298.15 K | 394.92
298.65 K | 395.16
300.15 K | 395.85
301.65 K | 396.56
303.15 K | 397.28
304.65 K | 398.01
306.15 K | 398.75
307.65 K | 399.5
309.15 K | 400.25
310.65 K | 401.02
312.15 K | 401.79
313.65 K | 402.57
315.15 K | 403.35
316.65 K | 404.15
318.15 K | 404.94
319.65 K | 405.75
321.15 K | 406.56
322.65 K | 407.37
324.15 K | 408.19
325.65 K | 409.01
327.15 K | 409.84
328.65 K | 410.67
330.15 K | 411.5
331.65 K | 412.33
333.15 K | 413.17
334.65 K | 414.01
336.15 K | 414.84
337.65 K | 415.68
339.15 K | 416.53
340.65 K | 417.37
342.15 K | 418.21
343.65 K | 419.04
345.15 K | 419.88
346.65 K | 420.72
348.15 K | 421.55
349.65 K | 422.38
351.15 K | 423.21
352.65 K | 424.04
354.15 K | 424.86
355.15 K | 425.41

BrCCCCCCCCCCCCBr [1,12-dibromododecane]
[1]
Conditions | molar heat capacity at constant pressure [J/K/mol]
310.65 K | 432.62
312.15 K | 433.39
313.65 K | 434.17
315.15 K | 434.98
316.65 K | 435.79
318.15 K | 436.62
319.65 K | 437.46
321.15 K | 438.31
322.65 K | 439.17
324.15 K | 440.04
325.65 K | 440.91
327.15 K | 441.8
328.65 K | 442.68
330.15 K | 443.57
331.65 K | 444.47
333.15 K | 445.36
334.65 K | 446.26
336.15 K | 447.15
337.65 K | 448.04
339.15 K | 448.93
340.65 K | 449.82
342.15 K | 450.69
343.65 K | 451.57
345.15 K | 452.43
346.65 K | 453.29
348.15 K | 454.13
349.65 K | 454.96
351.15 K | 455.78
352.65 K | 456.59
354.15 K | 457.38
355.15 K | 457.9

ClCCBr [1-bromo-2-chloroethane]
[2]
Conditions | mass density [kg/m3]
288.15 K | 1742.45
298.15 K | 1726.56
308.15 K | 1710.57
318.15 K | 1693.61

ClCCCBr [1-bromo-3-chloropropane]
[2]
Conditions | mass density [kg/m3]
288.15 K | 1601.96
298.15 K | 1588.17
308.15 K | 1574.87
318.15 K | 1560.65

ClCCCCBr [1-bromo-4-chlorobutane]
[2]
Conditions | mass density [kg/m3]
288.15 K | 1496.19
298.15 K | 1485.12
308.15 K | 1473.33
318.15 K | 1460.96

ClCCCCCBr [1-bromo-5-chloropentane]
[2]
Conditions | mass density [kg/m3]
288.15 K | 1409.7
298.15 K | 1399.37
308.15 K | 1388.77
318.15 K | 1377.96

ClCCCCCCBr [1-bromo-6-chlorohexane]
[2]
Conditions | mass density [kg/m3]
288.15 K | 1345.17
298.15 K | 1336.47
308.15 K | 1327.17
318.15 K | 1316.45
